The text below walks through data of patent publication US8445503B2, “Inhibitors of polo-like kinase” (Elan Pharmaceuticals, Inc., priority 2009, dated 2013).

Common to all, as to assay type: biochemical
One test deals with GST-PLK1 (Homo sapiens, UniProt P53350). As to the kind of experiment: PLK TR-FRET peptide assay, PLK1. The conditions noted are these: read-out: Plk1 IC50.
For a further test, the target named is T1, GST-PLK2 (Homo sapiens, UniProt Q9NYY3).
T1 construct: purchased CarnaBio
Nature of the test: PLK TR-FRET peptide assay, PLK2. As to conditions: for IC50: PLK TR-FRET peptide assay, GST-PLK2, read-out: Plk2 IC50. Background: In TR-FRET formats the signal depends on donor and acceptor labels being close together.

The target in a further test is T2, GST-PLK3 (Homo sapiens, UniProt Q9H4B4).
T2 construct: purchased CarnaBio
As to the kind of experiment: PLK TR-FRET peptide assay, PLK3. As to conditions: read-out: Plk3 IC50.

Setting [1] is: PLK TR-FRET peptide assay, GST-PLK3.

For orientation: IC50 means the concentration needed to halve the response being measured.

SMILES strings stand for the structures. Like-named read-outs stand apart in the source and are kept apart here.

T2 sequence (Q9H4B4 whole entry): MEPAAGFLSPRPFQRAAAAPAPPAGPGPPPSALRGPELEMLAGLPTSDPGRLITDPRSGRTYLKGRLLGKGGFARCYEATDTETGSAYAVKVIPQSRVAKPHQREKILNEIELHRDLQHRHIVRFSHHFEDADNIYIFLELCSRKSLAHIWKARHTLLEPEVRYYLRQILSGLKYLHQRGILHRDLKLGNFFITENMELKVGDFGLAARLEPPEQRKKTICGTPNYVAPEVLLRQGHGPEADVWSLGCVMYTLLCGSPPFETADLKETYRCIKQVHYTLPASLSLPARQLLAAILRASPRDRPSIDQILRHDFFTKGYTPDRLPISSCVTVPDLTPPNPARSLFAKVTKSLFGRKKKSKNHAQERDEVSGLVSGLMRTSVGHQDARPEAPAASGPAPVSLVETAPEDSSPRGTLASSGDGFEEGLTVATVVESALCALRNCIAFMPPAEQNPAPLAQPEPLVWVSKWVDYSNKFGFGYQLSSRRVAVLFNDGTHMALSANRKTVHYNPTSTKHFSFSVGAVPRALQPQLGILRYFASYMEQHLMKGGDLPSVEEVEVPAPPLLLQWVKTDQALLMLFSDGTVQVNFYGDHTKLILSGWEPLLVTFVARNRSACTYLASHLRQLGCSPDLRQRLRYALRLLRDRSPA
Sequence of GST-PLK1 (P53350 whole entry): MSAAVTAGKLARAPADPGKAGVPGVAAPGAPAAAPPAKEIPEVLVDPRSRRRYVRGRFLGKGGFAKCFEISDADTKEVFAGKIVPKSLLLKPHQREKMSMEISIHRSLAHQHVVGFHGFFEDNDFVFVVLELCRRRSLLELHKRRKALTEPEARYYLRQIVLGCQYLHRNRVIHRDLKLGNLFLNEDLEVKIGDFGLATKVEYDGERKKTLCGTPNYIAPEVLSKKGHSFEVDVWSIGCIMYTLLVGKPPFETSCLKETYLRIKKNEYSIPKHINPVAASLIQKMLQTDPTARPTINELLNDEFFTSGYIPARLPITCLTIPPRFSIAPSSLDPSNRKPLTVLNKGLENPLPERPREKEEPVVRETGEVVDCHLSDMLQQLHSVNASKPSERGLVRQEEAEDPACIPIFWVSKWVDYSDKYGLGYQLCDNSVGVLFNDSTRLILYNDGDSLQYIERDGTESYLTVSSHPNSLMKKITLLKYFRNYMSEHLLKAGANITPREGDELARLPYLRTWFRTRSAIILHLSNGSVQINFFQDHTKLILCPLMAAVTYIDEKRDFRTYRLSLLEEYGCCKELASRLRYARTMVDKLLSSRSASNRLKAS
T1 sequence (Q9NYY3 whole entry): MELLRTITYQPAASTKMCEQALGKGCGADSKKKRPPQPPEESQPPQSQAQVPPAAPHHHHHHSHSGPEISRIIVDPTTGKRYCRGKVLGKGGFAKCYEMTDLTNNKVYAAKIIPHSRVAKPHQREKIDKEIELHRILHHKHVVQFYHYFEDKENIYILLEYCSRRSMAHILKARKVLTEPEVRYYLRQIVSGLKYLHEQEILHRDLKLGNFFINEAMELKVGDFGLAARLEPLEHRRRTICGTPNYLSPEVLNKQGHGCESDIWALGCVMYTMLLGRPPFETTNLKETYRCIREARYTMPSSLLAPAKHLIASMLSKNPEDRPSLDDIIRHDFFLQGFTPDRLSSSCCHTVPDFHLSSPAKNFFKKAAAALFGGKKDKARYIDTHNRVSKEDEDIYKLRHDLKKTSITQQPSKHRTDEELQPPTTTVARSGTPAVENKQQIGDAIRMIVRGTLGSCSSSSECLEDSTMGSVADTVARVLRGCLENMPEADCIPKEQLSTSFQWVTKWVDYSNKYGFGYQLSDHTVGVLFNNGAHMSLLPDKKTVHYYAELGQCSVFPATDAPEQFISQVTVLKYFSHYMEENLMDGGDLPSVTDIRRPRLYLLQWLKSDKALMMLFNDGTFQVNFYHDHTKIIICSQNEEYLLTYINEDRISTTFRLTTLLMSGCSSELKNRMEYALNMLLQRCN

Regarding `CCC12COCCN1c1nc(-n3ccnc3-c3ccccc3)ncc1N(C)C2=O` (racemic) [Example 317, 6a-ethyl-5-methyl-2-(2-phenyl-1H-imidazol-1-yl)-6a,7,9,10-tetrahydro-[1,4]oxazino[3,4-h]pteridin-6(5H)-one], the figures for the IC50 at GST-PLK1, on GST-PLK2 and on GST-PLK3 (setting [1]) were 10 to 50 µM, < 1 µM and 1 to 10 µM, respectively.
In the case of `CCC12CN(C)CCN1c1nc(-n3ccnc3-c3ccccc3)ncc1N(C)C2=O` (racemic) [Example 371, 6a-ethyl-5,8-dimethyl-2-(2-phenyl-1H-imidazol-1-yl)-7,8,9,10-tetrahydro-5H-pyrazino[2,1-h]pteridin-6(6aH)-one], the IC50 was > 50 µM on GST-PLK1, < 1 µM at GST-PLK2 and > 50 µM on GST-PLK3 (setting [1]).
As for `CCC12COCCN1c1nc(-c3cn[nH]c3-c3ccc(F)cc3F)ncc1N(C)C2=O` (racemic) [Example 405, 2-(5-(2,4-difluorophenyl)-1H-pyrazol-4-yl)-6a-ethyl-5-methyl-6a,7,9,10-tetrahydro-[1,4]oxazino[3,4-h]pteridin-6(5H)-one], the results for the IC50 at GST-PLK1, at GST-PLK2 and on GST-PLK3 (setting [1]) were 10 to 50 µM, < 1 µM and 1 to 10 µM, respectively.
The matching figures for `CC[C@@H]1C(=O)N(C)c2cnc(-n3ccnc3)nc2N1C1CCOC1` (single isomer, unassigned) [Example 299]: 1 to 10 µM, < 1 µM and 10 to 50 µM.
For the compound `CC[C@@]12COCCN1c1nc(-n3ccnc3-c3ccccc3)ncc1N(C)C2=O` (single isomer, unassigned) [Example 314], the IC50 at GST-PLK1 was > 50 µM; at GST-PLK2 it was < 1 µM; on GST-PLK3 (setting [1]) it was 1 to 10 µM.
The matching figures for `CC[C@]12COCCN1c1nc(-n3ccnc3-c3ccccc3)ncc1N(C)C2=O` (single isomer, unassigned) [Example 315]: > 50 µM, 10 to 50 µM and > 50 µM.
Consider `CC[C@@H]1C(=O)N(C)c2cnc(-n3ccnc3)nc2N1C1CCCC1` [Example 3, (R)-8-cyclopentyl-7-ethyl-2-(1H-imidazol-1-yl)-5-methyl-7,8-dihydropteridin-6(5H)-one], for which the IC50 at GST-PLK1 was < 1 µM; at GST-PLK2, < 1 µM; on GST-PLK3 (setting [1]), 10 to 50 µM.
In the case of `CC[C@@H]1C(=O)N(C)c2cnc(-c3ccncc3)nc2N1C1CCCC1` [Example 5, (R)-8-cyclopentyl-7-ethyl-5-methyl-2-(pyridin-4-yl)-7,8-dihydropteridin-6(5H)-one], the IC50 on GST-PLK1 is < 1 µM; on GST-PLK2, < 1 µM; at GST-PLK3 (setting [1]), 10 to 50 µM.
In the case of `CC[C@@H]1C(=O)N(C)c2cnc(-c3cn[nH]c3)nc2N1C1CCCC1` [Example 7, (R)-8-cyclopentyl-7-ethyl-5-methyl-2-(1H-pyrazol-4-yl)-7,8-dihydropteridin-6(5H)-one], the IC50 at GST-PLK1 and at GST-PLK2 was < 1 µM in each case.
As to `CC[C@@H]1C(=O)N(C)c2cnc(-c3cc[n+]([O-])cc3)nc2N1C1CCCC1` [Example 13, (R)-4-(8-cyclopentyl-7-ethyl-5-methyl-6-oxo-5,6,7,8-tetrahydropteridin-2-yl)pyridine 1-oxide], the IC50 on GST-PLK1 and at GST-PLK2 was 1 to 10 µM each time.
For `CC[C@@H]1C(=O)N(C)c2cnc(-c3ccnc(O)c3)nc2N1C1CCCC1` [Example 14, (R)-8-cyclopentyl-7-ethyl-2-(2-hydroxypyridin-4-yl)-5-methyl-7,8-dihydropteridin-6(5H)-one], the IC50 at GST-PLK1 and at GST-PLK2 was < 1 µM throughout.
With `CCOC(=O)c1cnn(-c2ncc3c(n2)N(C2CCCC2)[C@H](CC)C(=O)N3C)c1` [Example 18, (R)-ethyl 1-(8-cyclopentyl-7-ethyl-5-methyl-6-oxo-5,6,7,8-tetrahydropteridin-2-yl)-1H-pyrazole-4-carboxylate], the figures for the IC50 at GST-PLK1, on GST-PLK2 and at GST-PLK3 (setting [1]) were < 1 µM, 1 to 10 µM and 10 to 50 µM, respectively.
The matching figures for `CC[C@@H]1C(=O)N(C)c2cnc(-c3ccn(C)c(=O)c3)nc2N1C1CCCC1` [Example 19, (R)-8-cyclopentyl-7-ethyl-5-methyl-2-(1-methyl-2-oxo-1,2-dihydropyridin-4-yl)-7,8-dihydropteridin-6(5H)-one]: < 1 µM, < 1 µM and 10 to 50 µM.
The matching figures for `CC[C@@H]1C(=O)N(C)c2cnc(-n3ccnc3)nc2N1C(C)C` [Example 22, (R)-7-ethyl-2-(1H-imidazol-1-yl)-8-isopropyl-5-methyl-7,8-dihydropteridin-6(5H)-one]: 1 to 10 µM, < 1 µM and > 50 µM.
Turning to `CC[C@@H]1C(=O)N(C)c2cnc(-n3cnc(CC#N)c3)nc2N1C1CCCC1` [Example 35, (R)-2-(1-(8-cyclopentyl-7-ethyl-5-methyl-6-oxo-5,6,7,8-tetrahydropteridin-2-yl)-1H-imidazol-4-yl)acetonitrile], the 50% inhibitory concentration (IC50) is 1 to 10 µM on GST-PLK1, < 1 µM at GST-PLK2 and 10 to 50 µM on GST-PLK3 (setting [1]).
Regarding `CC[C@@H]1C(=O)N(C)c2cnc(-n3cnc(C(=O)O)c3)nc2N1C1CCCC1` [Example 37, (R)-1-(8-cyclopentyl-7-ethyl-5-methyl-6-oxo-5,6,7,8-tetrahydropteridin-2-yl)-1H-imidazole-4-carboxylic acid], the concentration for half-maximal inhibition (IC50) at GST-PLK1, on GST-PLK2 and at GST-PLK3 (setting [1]) was < 1 µM in each case.
`CC[C@@H]1C(=O)N(C)c2cnc(-n3cnc(C(=O)OC)c3)nc2N1C1CCCC1` [Example 38, (R)-methyl 1-(8-cyclopentyl-7-ethyl-5-methyl-6-oxo-5,6,7,8-tetrahydropteridin-2-yl)-1H-imidazole-4-carboxylate]: the IC50 was < 1 µM at GST-PLK1, 1 to 10 µM on GST-PLK2 and 1 to 10 µM at GST-PLK3 (setting [1]).
For `CC[C@@H]1C(=O)N(C)c2cnc(-n3cc(C(=O)N(C)C)cn3)nc2N1C1CCCC1` [Example 39, (R)-1-(8-cyclopentyl-7-ethyl-5-methyl-6-oxo-5,6,7,8-tetrahydropteridin-2-yl)-N,N-dimethyl-1H-pyrazole-4-carboxamide], the IC50 on GST-PLK1 was 1 to 10 µM; at GST-PLK2, 1 to 10 µM; on GST-PLK3 (setting [1]), 10 to 50 µM.
As to `CC[C@@H]1C(=O)N(C)c2cnc(-n3cc(C(=O)NC)cn3)nc2N1C1CCCC1` [Example 40, (R)-1-(8-cyclopentyl-7-ethyl-5-methyl-6-oxo-5,6,7,8-tetrahydropteridin-2-yl)-N-methyl-1H-pyrazole-4-carboxamide], the values for the IC50 on GST-PLK1 and at GST-PLK3 (setting [1]) were < 1 µM and 10 to 50 µM, respectively.
For the compound `CC[C@@H]1C(=O)N(C)c2cnc(-n3cc(C(=O)N4CCOCC4)cn3)nc2N1C1CCCC1` [Example 41, (R)-8-cyclopentyl-7-ethyl-5-methyl-2-(4-(morpholine-4-carbonyl)-1H-pyrazol-1-yl)-7,8-dihydropteridin-6(5H)-one], the IC50 was 1 to 10 µM on GST-PLK1, 1 to 10 µM on GST-PLK2 and 10 to 50 µM on GST-PLK3 (setting [1]).
For `CC[C@@H]1C(=O)N(C)c2cnc(-n3cnc(Br)c3)nc2N1C1CCCC1` [Example 43, (R)-2-(4-bromo-1H-imidazol-1-yl)-8-cyclopentyl-7-ethyl-5-methyl-7,8-dihydropteridin-6(5H)-one], the values for the concentration for half-maximal inhibition (IC50) on GST-PLK1, at GST-PLK2 and on GST-PLK3 (setting [1]) were < 1 µM, < 1 µM and 10 to 50 µM, respectively.
In the case of `CC[C@@H]1C(=O)N(C)c2cnc(-n3cc(C(=O)O)cn3)nc2N1C1CCCC1` [Example 44, (R)-1-(8-cyclopentyl-7-ethyl-5-methyl-6-oxo-5,6,7,8-tetrahydropteridin-2-yl)-1H-pyrazole-4-carboxylic acid], the results for the half-maximal inhibitory concentration (IC50) on GST-PLK1, at GST-PLK2 and on GST-PLK3 (setting [1]) were < 1 µM, 1 to 10 µM and 1 to 10 µM, respectively.
Consider `CC[C@@H]1C(=O)N(C)c2cnc(-n3ccnc3-c3ccccc3)nc2N1C1CCOC1` (stereo partly drawn) [Example 182], for which the 50% inhibitory concentration (IC50) at GST-PLK3 (setting [1]) was < 1 µM.
`CC[C@@H]1C(=O)N(C)c2cnc(-n3ccnc3-c3ccccc3)nc2N1CCC(F)(F)F` [Example 190]: the IC50 on GST-PLK3 (setting [1]) lay within 1 to 10 µM.
With `CC[C@@H]1C(=O)N(C)c2cnc(-n3ccnc3-c3ccccc3)nc2N1C1CCOC1` (stereo partly drawn) [Example 203], on GST-PLK3 (setting [1]), the half-maximal inhibitory concentration (IC50) is 1 to 10 µM.
The same measure, in the same setting: the result for `CC[C@@H]1C(=O)N(C)c2cnc(-n3ccnc3-c3ccc(F)cc3)nc2N1CCC(F)(F)F` [Example 233] reads 10 to 50 µM.
Regarding `CC[C@@H]1C(=O)N(C)c2cnc(-n3ccnc3-c3ccc(F)cc3)nc2N1C1CCC(F)(F)C1` (stereo partly drawn) [Example 242], on GST-PLK3 (setting [1]), the IC50 is 1 to 10 µM.
Regarding `CC[C@@H]1C(=O)N(C)c2cnc(N3CCN=C3c3ccccc3)nc2N1C(C)C` [Example 246, (R)-7-ethyl-8-isopropyl-5-methyl-2-(2-phenyl-4,5-dihydro-1H-imidazol-1-yl)-7,8-dihydropteridin-6(5H)-one], at GST-PLK3, the IC50 lay within 1 to 10 µM.
In the case of `CC[C@@H]1C(=O)N(C)c2cnc(-n3ccnc3-c3ccc(F)cc3)nc2N1C1CC(F)(F)C1` [Example 247], the half-maximal inhibitory concentration (IC50) on GST-PLK3 (setting [1]) lay in the range of 10 to 50 µM.
Consider `CC[C@@]12CCCN1c1nc(-n3ccnc3-c3cccc(Br)c3)ncc1N(C)C2=O` [Example 252], for which, on GST-PLK2, the IC50 is < 1 µM.
For the compound `CN1C(=O)C(CC(F)(F)F)N(CCC(F)(F)F)c2nc(-n3ccnc3-c3ccc(F)cc3)ncc21` (stereo not drawn) [Example 255], the IC50 at GST-PLK3 (setting [1]) was 10 to 50 µM.
Take `CCC1C(=O)N(C)c2cnc(-n3ccnc3-c3ccc(F)cc3)nc2N1c1ccc(F)cc1` (stereo not drawn) [Example 324]: the IC50 at GST-PLK3 (setting [1]) is 1 to 10 µM.
Turning to `CC[C@@H]1C(=O)N(C)c2cnc(-c3cn[nH]c3-c3nccs3)nc2N1C1CCOCC1` [Example 349], the IC50 on GST-PLK3 (setting [1]) is < 1 µM.
Turning to `CC[C@@H]1C(=O)N(C)c2cnc(-n3ccc4ccccc43)nc2N1C1CCCC1` [Example 385], at GST-PLK3 (setting [1]), the half-inhibitory concentration (IC50) was > 50 µM.
Turning to `CC[C@@]12COCCN1c1nc(-n3ccnc3-c3ccccc3)ncc1NC2=O` [Example 418, (S)-6a-ethyl-2-(2-phenyl-1H-imidazol-1-yl)-6a,7,9,10-tetrahydro-[1,4]oxazino[3,4-h]pteridin-6(5H)-one], the “PLK2 activity relative to the opposite enantiomer / other isomer” value on GST-PLK2 (comparison of resolved enantiomers, used to assign absolute configuration) is “more active compound”.
